Data reported in EPA's ToxValDB 9.5 (doi:10.2903/j.efsa.2015.4001).

Key:
[1] = tested on: Colinus virginianus; settings: acute; oral
[2] = tested on: Tagia sp.
[3] = tested on: Rattus norvegicus
[4] = tested on: Oryctolagus sp.; settings: developmental; development
[5] = tested on: Anas platyrhynchos; settings: reproductive
[6] = tested on: Mus musculus; settings: organ weight
[7] = tested on: Apis mellifera; settings: acute, duration: 48 hours, mortality

## CCOC(=O)COc1cc(-c2nn(C)c(OC(F)F)c2Cl)c(F)cc1Cl [Pyraflufen-ethyl]
[1]
  LD50: > 2000 mg/kg-day
[2]; acute, duration: 14 days, mortality
  LC50: > 500 mg/kg
[2]; chronic/long-term
  NOEC: ≥ 250 mg/kg
[3]; acute, oral, mortality
  LD50: > 5000 mg/kg-day
[3]; chronic, duration: 2 years, organ weight
  NOAEL: 20 mg/kg-day
[3]; reproduction developmental
  NOAEL: 20 mg/kg-day
[4]
  NOAEL: 20 mg/kg-day
[5]
  NOAEL: 50 mg/kg-day
[6]; chronic, duration: 18 months
  NOAEL: 20 mg/kg-day
[6]; subchronic, duration: 90 days, oral
  NOAEL: 20 mg/kg-day
[7]; dermal
  LD50: > 100 µg/piece
[7]; oral, unspecified
  LD50: > 112 µg/piece
